Assay [1] has as its target T1, Oseltamivir-resistant A/Bethesda/956/2006 neuraminidase (K at 292) (Influenza A virus (H3N2), UniProt F1KL32, R292K). It is filed as biochemical. The conditions noted are these: pH 6.5.
For assay [2], the target named is T1, Oseltamivir-resistant A/Bethesda/956/2006 neuraminidase (K at 292). It is filed as biochemical. Conditions: pH 5.1.
Assay [3] addresses T2, Oseltamivir-resistant A/Texas/23/2012 neuraminidase (H275Y) (Influenza A virus (H1N1pdm09), UniProt R4SI91, H275Y). It is filed as biochemical, Pandemic influenza A(H1N1) 2009 virus. Conditions: pH 6.5.
Assay [4] addresses T2, Oseltamivir-resistant A/Texas/23/2012 neuraminidase (H275Y). Format: biochemical, Pandemic influenza A(H1N1) 2009 virus. Conditions: pH 5.1.

pIC50: −log10 of the molar value. Like-named read-outs stand apart in the source and are kept apart here.

With `CCC(CC)[C@H](NC(C)=O)[C@@H]1[C@H](O)[C@@H](C(=O)O)C[C@H]1N=C(N)N` [Peramivir, peramivir], the “Fold change in IC50 compared with drug-sensitive subtype-specific control” value is given as 16.27 (203) -fold in assay [1], 8.58 (86) fold in assay [2], 15.81 (264) -fold in assay [3] and 30.17 (431) fold in assay [4]. Moreover, the negative-log IC50 (pIC50) (commonly −log10 of the IC50, conventionally taken in molar units) in assay [1] was 7.79; in assay [2], 8.07; in assay [3], 7.80; in assay [4] it was 7.52.
